What was measured:
IKZF2 = biological target: T1, IKZF2 (Homo sapiens, UniProt Q96SW2+Q9UKS7); assay: Western blot degradation of IKZF2 (hPBMC); type: cell-based; details: Table D16
T1 construct: evaluate the effects of the compounds of the present disclosure on the expression of target proteins in cells; endogenous in cells; host or cells: hPBMC
Protocol: (§1) Conventional Western blot assay was performed to evaluate the effects of the compounds of the present disclosure on the expression of target proteins in cells.
(§2) (1) Cell Seeding and Protein Harvesting: The selected cells were processed according to the cell seeding procedure and protein harvesting procedure in Table III-2. Table III-2 Cell Seeding and Protein Harvesting Procedures
(§3) (2) To the collected supernatant, 5X SDS sample loading buffer was added, followed by denaturation at 95°C for 5 minutes. The denatured samples were then separated by SDS-PAGE electrophoresis on a polyacrylamide gel. Proteins were transferred to a nitrocellulose membrane (0.45 µm NC membrane), blocked with blocking buffer at room temperature for 1 hour, and subjected to antibody incubation and development procedures according to the antibody manufacturer's instructions (Cell Signaling Technology).
(§4) Half-Maximal Degradation Concentration value (the drug concentration required for degrading proteins by 50%, abbreviated as DC50) reads method: comparing the grayscale values of Western blot bands from drug-treated samples with those from blank DMSO-treated controls, and identifying the drug concentration range at which the grayscale value is half that of the DMSO-treated control bands.
(§5) DC50 values can be calculated using ImageJ software to measure grayscale values of Western blot bands from drug-treated samples. The concentration-response curve is fitted to estimate the drug concentration corresponding to half the grayscale value.
(§6) Target protein remaining (%) refers to the percentage of target protein remaining in hPBMC cells after treatment with protein degrader compounds.
(§7) Calculation method for target protein remaining (%): Use ImageJ software to measure grayscale values of Western blot bands from drug (protein degrader)-treated samples. The grayscale value of drug-treated bands is divided by that of internal control protein bands, and the resulting quotient is normalized to obtain the relative percentage of remaining target protein after protein degrader treatment.
(§8) Target protein degradation rate (%) = 100% - target protein remaining (%).

IKZF1 = biological target: T2, IKZF1 (Homo sapiens, UniProt Q13422+Q96SW2); assay: Western blot degradation of IKZF1 (hPBMC); type: cell-based; details: Table D16
T2 construct: evaluate the effects of the compounds of the present disclosure on the expression of target proteins in cells; endogenous in cells; host or cells: hPBMC
T2 sequence (Q13422 whole entry): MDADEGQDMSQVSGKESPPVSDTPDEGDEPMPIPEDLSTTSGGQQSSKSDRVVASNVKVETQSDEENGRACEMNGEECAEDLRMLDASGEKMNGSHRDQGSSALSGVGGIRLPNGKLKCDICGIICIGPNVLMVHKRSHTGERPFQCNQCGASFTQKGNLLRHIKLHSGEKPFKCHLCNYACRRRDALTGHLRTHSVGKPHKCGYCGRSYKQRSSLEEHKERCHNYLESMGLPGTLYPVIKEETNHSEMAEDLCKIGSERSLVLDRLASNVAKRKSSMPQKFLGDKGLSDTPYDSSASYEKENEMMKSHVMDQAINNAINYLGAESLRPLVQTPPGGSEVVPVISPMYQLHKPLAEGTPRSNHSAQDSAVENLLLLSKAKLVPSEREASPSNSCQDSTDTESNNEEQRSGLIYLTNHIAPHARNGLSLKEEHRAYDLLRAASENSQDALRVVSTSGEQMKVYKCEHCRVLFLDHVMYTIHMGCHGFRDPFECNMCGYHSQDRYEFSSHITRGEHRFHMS
T2 sequence (Q96SW2 whole entry): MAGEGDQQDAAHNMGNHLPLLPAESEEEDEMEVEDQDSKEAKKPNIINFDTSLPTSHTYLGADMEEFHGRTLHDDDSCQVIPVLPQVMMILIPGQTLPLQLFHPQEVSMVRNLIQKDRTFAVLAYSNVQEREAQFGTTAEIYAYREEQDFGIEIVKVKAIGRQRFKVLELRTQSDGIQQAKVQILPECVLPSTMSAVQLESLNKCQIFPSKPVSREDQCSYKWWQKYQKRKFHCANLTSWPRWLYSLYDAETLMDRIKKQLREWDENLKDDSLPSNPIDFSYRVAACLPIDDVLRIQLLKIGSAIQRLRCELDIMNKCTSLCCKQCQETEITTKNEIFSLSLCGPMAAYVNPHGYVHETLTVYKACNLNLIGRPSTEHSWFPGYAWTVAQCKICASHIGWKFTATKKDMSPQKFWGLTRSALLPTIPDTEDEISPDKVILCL
T2 sequence (Q16531 whole entry partner): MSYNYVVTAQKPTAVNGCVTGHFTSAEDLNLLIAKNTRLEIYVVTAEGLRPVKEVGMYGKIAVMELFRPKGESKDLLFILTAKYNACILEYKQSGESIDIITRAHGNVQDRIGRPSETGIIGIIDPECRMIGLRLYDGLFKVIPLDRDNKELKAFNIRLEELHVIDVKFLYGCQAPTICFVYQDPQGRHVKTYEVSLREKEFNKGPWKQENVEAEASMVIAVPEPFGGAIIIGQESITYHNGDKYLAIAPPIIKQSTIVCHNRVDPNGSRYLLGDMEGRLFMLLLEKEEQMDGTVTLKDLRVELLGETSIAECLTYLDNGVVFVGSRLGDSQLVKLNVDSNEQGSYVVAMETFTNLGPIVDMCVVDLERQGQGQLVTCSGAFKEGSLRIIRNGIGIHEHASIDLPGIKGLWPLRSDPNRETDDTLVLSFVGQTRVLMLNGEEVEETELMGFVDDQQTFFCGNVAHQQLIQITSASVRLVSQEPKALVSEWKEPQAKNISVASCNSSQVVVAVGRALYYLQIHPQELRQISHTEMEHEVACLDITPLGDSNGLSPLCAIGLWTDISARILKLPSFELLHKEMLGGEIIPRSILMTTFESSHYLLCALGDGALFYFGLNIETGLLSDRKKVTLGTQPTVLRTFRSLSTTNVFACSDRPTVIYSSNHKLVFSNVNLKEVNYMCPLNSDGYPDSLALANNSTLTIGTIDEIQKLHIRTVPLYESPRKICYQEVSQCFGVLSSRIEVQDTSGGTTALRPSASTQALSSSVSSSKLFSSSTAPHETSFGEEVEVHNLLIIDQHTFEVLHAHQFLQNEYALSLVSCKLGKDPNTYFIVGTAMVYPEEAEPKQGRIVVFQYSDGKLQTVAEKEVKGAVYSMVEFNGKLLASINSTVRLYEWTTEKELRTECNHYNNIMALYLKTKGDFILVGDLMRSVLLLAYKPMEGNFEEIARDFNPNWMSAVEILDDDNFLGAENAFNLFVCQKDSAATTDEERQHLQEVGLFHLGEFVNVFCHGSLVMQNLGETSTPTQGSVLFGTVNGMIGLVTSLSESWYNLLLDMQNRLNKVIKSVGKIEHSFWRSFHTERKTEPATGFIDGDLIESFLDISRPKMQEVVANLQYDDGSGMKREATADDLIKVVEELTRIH
Protocol: as §1, §2, §3, §4, §5, §6, §7, §8

WEE1 = biological target: T3, WEE1 (Homo sapiens, UniProt P30291+Q96SW2); assay: Western blot degradation of WEE1 (hPBMC); type: cell-based; details: Table D16
T3 construct: evaluate the effects of the compounds of the present disclosure on the expression of target proteins in cells; endogenous in cells; host or cells: hPBMC
T3 sequence (P30291 whole entry): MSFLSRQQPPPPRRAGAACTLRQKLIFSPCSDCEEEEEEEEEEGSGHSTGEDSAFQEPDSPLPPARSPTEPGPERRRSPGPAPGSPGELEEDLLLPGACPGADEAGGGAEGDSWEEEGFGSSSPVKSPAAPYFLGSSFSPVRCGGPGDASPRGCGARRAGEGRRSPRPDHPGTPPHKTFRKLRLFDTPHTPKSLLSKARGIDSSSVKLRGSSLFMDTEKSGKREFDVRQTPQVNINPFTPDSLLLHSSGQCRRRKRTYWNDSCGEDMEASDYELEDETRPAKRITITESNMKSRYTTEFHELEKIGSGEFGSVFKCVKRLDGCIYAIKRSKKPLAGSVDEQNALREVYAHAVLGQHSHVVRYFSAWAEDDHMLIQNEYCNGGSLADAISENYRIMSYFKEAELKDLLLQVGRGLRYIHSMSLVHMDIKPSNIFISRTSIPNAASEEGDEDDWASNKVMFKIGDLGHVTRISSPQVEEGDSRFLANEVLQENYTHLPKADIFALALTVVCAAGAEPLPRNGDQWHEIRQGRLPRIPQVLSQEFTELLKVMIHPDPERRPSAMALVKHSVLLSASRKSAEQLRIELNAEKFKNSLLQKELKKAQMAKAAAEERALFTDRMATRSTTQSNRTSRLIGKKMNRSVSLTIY
T3 sequence (Q96SW2 whole entry): as the sequence (Q96SW2 whole entry) above
T3 sequence (Q16531 whole entry partner): as the sequence (Q16531 whole entry partner) above
Protocol: as §1, §2, §3, §4, §5, §6, §7, §8

CK1a = biological target: T4, CK1a (Homo sapiens, UniProt P48729+Q96SW2); assay: Western blot degradation of CK1a (hPBMC); type: cell-based; details: Table D16
T4 construct: evaluate the effects of the compounds of the present disclosure on the expression of target proteins in cells; endogenous in cells; host or cells: hPBMC
T4 sequence (P48729 whole entry): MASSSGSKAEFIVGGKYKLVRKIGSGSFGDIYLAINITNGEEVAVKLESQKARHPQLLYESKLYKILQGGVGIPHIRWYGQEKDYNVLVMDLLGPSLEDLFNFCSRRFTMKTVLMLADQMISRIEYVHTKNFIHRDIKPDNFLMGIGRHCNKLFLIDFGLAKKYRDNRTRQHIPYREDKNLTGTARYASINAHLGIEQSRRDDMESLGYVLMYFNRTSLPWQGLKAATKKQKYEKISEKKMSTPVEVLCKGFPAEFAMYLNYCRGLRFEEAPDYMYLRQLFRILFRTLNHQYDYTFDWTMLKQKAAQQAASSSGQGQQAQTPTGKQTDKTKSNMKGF
T4 sequence (Q96SW2 whole entry): as the sequence (Q96SW2 whole entry) above
T4 sequence (Q16531 whole entry partner): as the sequence (Q16531 whole entry partner) above
Protocol: as §1, §2, §3, §4, §5, §6, §7, §8

GSPT1 = biological target: T5, GSPT1 (Homo sapiens, UniProt P15170+Q96SW2); assay: Western blot degradation of GSPT1 (hPBMC); type: cell-based; details: Table D16
T5 construct: evaluate the effects of the compounds of the present disclosure on the expression of target proteins in cells; endogenous in cells; host or cells: hPBMC
T5 sequence (P15170 whole entry): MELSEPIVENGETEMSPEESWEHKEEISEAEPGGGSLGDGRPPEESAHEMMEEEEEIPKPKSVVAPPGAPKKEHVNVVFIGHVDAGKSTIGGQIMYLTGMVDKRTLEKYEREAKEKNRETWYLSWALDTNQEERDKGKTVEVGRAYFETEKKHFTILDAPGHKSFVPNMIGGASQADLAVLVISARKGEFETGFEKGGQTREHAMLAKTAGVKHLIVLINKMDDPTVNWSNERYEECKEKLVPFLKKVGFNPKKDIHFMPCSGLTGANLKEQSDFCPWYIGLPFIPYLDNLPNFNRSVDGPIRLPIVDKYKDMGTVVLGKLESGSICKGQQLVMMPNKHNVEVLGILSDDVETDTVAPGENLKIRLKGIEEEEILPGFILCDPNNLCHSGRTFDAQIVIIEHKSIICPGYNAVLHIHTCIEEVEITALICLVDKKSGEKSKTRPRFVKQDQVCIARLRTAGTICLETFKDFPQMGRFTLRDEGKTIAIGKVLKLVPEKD
T5 sequence (Q96SW2 whole entry): as the sequence (Q96SW2 whole entry) above
T5 sequence (Q16531 whole entry partner): as the sequence (Q16531 whole entry partner) above
Protocol: as §1, §2, §3, §4, §5, §6, §7, §8

IKZF3 = biological target: T6, IKZF3 (Homo sapiens, UniProt Q96SW2+Q9UKT9); assay: Western blot degradation of IKZF3 (hPBMC); type: cell-based; details: Table D16
T6 construct: evaluate the effects of the compounds of the present disclosure on the expression of target proteins in cells; endogenous in cells; host or cells: hPBMC
T6 sequence (Q9UKT9 whole entry): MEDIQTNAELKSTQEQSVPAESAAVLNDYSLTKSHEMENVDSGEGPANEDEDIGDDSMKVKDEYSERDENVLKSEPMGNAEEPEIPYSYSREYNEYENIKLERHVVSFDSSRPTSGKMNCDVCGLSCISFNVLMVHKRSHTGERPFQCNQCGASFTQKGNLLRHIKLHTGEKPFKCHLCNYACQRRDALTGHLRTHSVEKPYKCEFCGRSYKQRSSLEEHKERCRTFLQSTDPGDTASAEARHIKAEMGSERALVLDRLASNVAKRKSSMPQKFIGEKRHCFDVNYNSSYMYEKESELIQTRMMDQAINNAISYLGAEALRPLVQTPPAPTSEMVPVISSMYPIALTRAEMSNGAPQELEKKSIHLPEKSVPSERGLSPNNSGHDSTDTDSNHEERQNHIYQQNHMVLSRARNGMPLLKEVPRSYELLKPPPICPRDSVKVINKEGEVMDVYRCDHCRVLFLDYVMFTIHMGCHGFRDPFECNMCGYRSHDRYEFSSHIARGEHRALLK
T6 sequence (Q96SW2 whole entry): as the sequence (Q96SW2 whole entry) above
T6 sequence (Q16531 whole entry partner): as the sequence (Q16531 whole entry partner) above
Protocol: as §1, §2, §3, §4, §5, §6, §7, §8

MM.1S = assay: CCK-8 proliferation, MM.1S; type: cell-based; details: Homo sapiens, MM1.S; Table B6, compounds designed based on the ALK inhibitors; MM.1S cells; read-out: Inhibitory activity (IC50, nM) on tumor cell proliferation, MM.1S
Procedure, shortened: (§9)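 Tumor cells were cultured at 37°C with 5% CO2, seeded, and after 24h treated with compounds at 10 concentrations starting at 10µM (5-fold serial dilutions).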

H2228 = assay: CCK-8 proliferation, NCI-H2228 (H2228); type: cell-based; details: Homo sapiens, NCI-H2228; Table B6, compounds designed based on the ALK inhibitors; H2228 cells; read-out: Inhibitory activity (IC50, nM) on tumor cell proliferation, H2228
Procedure, shortened: as §9

SR = assay: CCK-8 proliferation, SR; type: cell-based, Human; details: Homo sapiens; Table B6, compounds designed based on the ALK inhibitors; SR cells; read-out: Inhibitory activity (IC50, nM) on tumor cell proliferation, SR
Procedure, shortened: as §9

ALK = biological target: T7, ALK (Homo sapiens, UniProt Q96SW2+Q9HC35+Q9UM73); assay: Western blot degradation of ALK (H2228 Cell); type: cell-based; details: Table D5
T7 construct: evaluate the effects of the compounds of the present disclosure on the expression of target proteins in cells; endogenous in cells; host or cells: H2228
Procedure, shortened: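 After compound exposure, cells were harvested and lysates run on SDS-PAGE, transferred to nitrocellulose and probed with antibodies. Remaining target (%) was computed from band grayscale relative to an internal control protein and normalised; degradation (%) was 100% minus that.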

MCF7 = assay: CCK-8 proliferation, MCF7 (MCF-7); type: cell-based; details: Homo sapiens, MCF7; Table B6, compounds designed based on the ALK inhibitors; MCF-7 cells; read-out: Inhibitory activity (IC50, nM) on tumor cell proliferation, MCF-7
Procedure, shortened: as §9

H1975 = assay: CCK-8 proliferation, NCI-H1975 (H1975); type: cell-based, Human; details: Homo sapiens, NCI-H1975; Table B6, compounds designed based on the ALK inhibitors; H1975 cells; read-out: Inhibitory activity (IC50, nM) on tumor cell proliferation, H1975
Procedure, shortened: as §9

SMILES	Degradation of substrate protein IKZF2 (substrate protein remaining %) (IKZF2)	Degradation of substrate protein IKZF1 (substrate protein remaining %) (IKZF1)	Degradation of substrate protein WEE1 (substrate protein remaining %) (WEE1)	Degradation of substrate protein CKla (substrate protein remaining %) (CK1a)	Degradation of substrate protein GSPT1 (substrate protein remaining %) (GSPT1)	Degradation of substrate protein IKZF3 (substrate protein remaining %) (IKZF3)	IC50 (MM.1S)	IC50 (H2228)	IC50 (SR)	Degradation of substrate protein ALK (substrate protein remaining %) (ALK)	IC50 (MCF7)	IC50 (H1975)
O=C1CCN(c2ccc(CCl)cn2)C(=O)N1 [GT-07009, 1-(5-(Chloromethyl)pyridin-2-yl)dihydropyrimidine-2,4(1H,3H)-dione]	B (B is defined as substrate protein remaining % > 80%)	B (B is defined as substrate protein remaining % > 80%)	B (B is defined as substrate protein remaining % > 80%)	A (A is defined as 0% ≤ substrate protein remaining % ≤ 80%)	B (B is defined as substrate protein remaining % > 80%)	B (B is defined as substrate protein remaining % > 80%)						
O=C1CCC(c2ccc(CO)nc2)C(=O)N1 (centres unmarked) [GT-07010, 3-(6-(Hydroxymethyl)pyridin-3-yl)piperidine-2,6-dione]	B (B is defined as substrate protein remaining % > 80%)	B (B is defined as substrate protein remaining % > 80%)	B (B is defined as substrate protein remaining % > 80%)	A (A is defined as 0% ≤ substrate protein remaining % ≤ 80%)	A (A is defined as 0% ≤ substrate protein remaining % ≤ 80%)	A (A is defined as 0% ≤ substrate protein remaining % ≤ 80%)						
NCc1ccc(N2CCC(=O)NC2=O)nc1 [GT-07012, 1-(5-(Aminomethyl)pyridin-2-yl)dihydropyrimidine-2,4(1H,3H)-dione]	B (B is defined as substrate protein remaining % > 80%)	B (B is defined as substrate protein remaining % > 80%)	A (A is defined as 0% ≤ substrate protein remaining % ≤ 80%)	B (B is defined as substrate protein remaining % > 80%)	A (A is defined as 0% ≤ substrate protein remaining % ≤ 80%)	A (A is defined as 0% ≤ substrate protein remaining % ≤ 80%)						
NCc1ccc(N2CCC(=O)NC2=O)cn1 [GT-07048, 1-(6-(Aminomethyl)pyridin-3-yl)dihydropyrimidine-2,4(1H,3H)-dione]	A (A is defined as 0% ≤ substrate protein remaining % ≤ 80%)	A (A is defined as 0% ≤ substrate protein remaining % ≤ 80%)	B (B is defined as substrate protein remaining % > 80%)	A (A is defined as 0% ≤ substrate protein remaining % ≤ 80%)	A (A is defined as 0% ≤ substrate protein remaining % ≤ 80%)	A (A is defined as 0% ≤ substrate protein remaining % ≤ 80%)						
O=C1CCC(c2cnc(F)c(CO)c2)C(=O)N1 (centres unmarked) [GT-07074, 3-(6-Fluoro-5-(hydroxymethyl)pyridin-3-yl)piperidine-2,6-dione]	A (A is defined as 0% ≤ substrate protein remaining % ≤ 80%)	B (B is defined as substrate protein remaining % > 80%)	B (B is defined as substrate protein remaining % > 80%)	B (B is defined as substrate protein remaining % > 80%)	A (A is defined as 0% ≤ substrate protein remaining % ≤ 80%)	A (A is defined as 0% ≤ substrate protein remaining % ≤ 80%)						
CCc1cc2c(cc1N1CCN(Cc3ccc(C4CCC(=O)NC4=O)cc3)CC1)C(C)(C)c1[nH]c3cc(C#N)ccc3c1C2=O (centres unmarked) [GT-07323, 8-(4-(4-(2,6-dioxopiperidin-3-yl)benzyl)piperazin-1-yl)-9-ethyl-6,6-dimethyl-11-oxo-6,11-dihydro-5H-benzo[b]carbazole-3-carbonitrile]							500 to 1000 nM	100 to 500 nM	1 to 10 nM	A (A is defined as 0% ≤ substrate protein remaining % ≤ 80%)		
Cc1cc(Nc2ncc(Cl)c(Nc3ccccc3S(=O)(=O)C(C)C)n2)c(OC(C)C)cc1C1CCN(Cc2cccc(N3CCC(=O)NC3=O)c2)CC1 [GT-07593, 1-(3-((4-(4-((5-chloro-4-((2-(isopropylsulfonyl)phenyl)amino)pyrimidin-2-yl)amino)-5-isopropoxy-2-methylphenyl)piperidin-1-yl)methyl)phenyl)dihydropyr imidine-2,4(1H,3H)-dione]							500 to 1000 nM	50 to 100 nM	10 to 50 nM	A (A is defined as 0% ≤ substrate protein remaining % ≤ 80%)	100 to 500 nM	
Cc1cc(Nc2ncc(Cl)c(Nc3ccccc3S(=O)(=O)C(C)C)n2)c(OC(C)C)cc1C1CCN(Cc2ccc(C3CCC(=O)NC3=O)cn2)CC1 (centres unmarked) [GT-07600, 3-(6-((4-(4-((5-chloro-4-((2-(isopropylsulfonyl)phenyl)amino)pyrimidin-2-yl)amino)-5-isopropoxy-2-methylphenyl)piperidin-1-yl)methyl)pyridin-3-yl)piperidine-2,6-dione]							500 to 1000 nM	50 to 100 nM	10 to 50 nM	A (A is defined as 0% ≤ substrate protein remaining % ≤ 80%)	100 to 500 nM	
COc1cc(N2CCC(N(C)Cc3ccnc(N4CCC(=O)NC4=O)c3)CC2)ccc1Nc1ncc(Cl)c(Nc2ccccc2P(C)(C)=O)n1 [GT-07694, 1-(4-(((1-(4-((5-chloro-4-((2-(dimethylphosphoryl)phenyl)amino)pyrimidin-2-yl)amino)-3-methoxyphenyl)piperidin-4-yl)(methyl)amino)methyl)pyridin-2-yl)dihydropyrimidine-2,4(1H,3H)-dione]							500 to 1000 nM	10 to 50 nM	1 to 10 nM	A (A is defined as 0% ≤ substrate protein remaining % ≤ 80%)	100 to 500 nM	100 to 500 nM

Reference: patent EP4678638A1, “NEW E3 UBIQUITIN LIGASE LIGAND, PROTEIN DEGRADATION AGENT AND USE THEREOF” (priority 2023, dated 2024)
